Measured values: patent publication US4774345A, “Amine-complexed zinc salts of organic diacids” (Engelhard Corporation, priority 1986, dated 1988)
“Also recorded” adds a separate entry of the source. Read-outs that look alike come from different tables or passages of the source.

Legend:
[1] = Electrochemical testing (Tafel Plot), corrosion current, corrosion potential and pH of simulated acid rain saturated with pigment
[2] = Salt spray exposure, Example VI (ASTM B117-73; alkyd and latex primers); conditions: for Salt spray durability, in words: FIG. 3, alkyd formulation
Draize eye irritation = type: in vivo; conditions: 100 mg
Primary skin irritation = type: in vivo; conditions: 0.5 g in Saline Paste
[3] = Salt spray exposure, Example V (alkyd and latex primers)
Acute oral toxicity = type: in vivo
[4] = water
[5] = in vivo; cited from earlier work
[6] = Table III, simulated acid rain electrolyte pH about 4.2, saturated with pigment

NCCN.O=C([O-])CCCCC(=O)[O-].[Zn+2] [Compound 3, Zinc Adipate Ethylenediamine]
Corrosion Curr. (Icorr) [1, 6]: 78 microamps | Salt spray durability, in words [2]: superior to "Zinc Yellow" (zinc chromate) in salt spray durability | Eye Irritation, rating in words (Draize eye irritation): moderately-irritating | Skin Irritation, rating in words (Primary skin irritation): minimally irritating

CC(N)CN.O=C([O-])CCCCC(=O)[O-].[Zn+2] [Compound 4, Zinc Adipate Propylenediamine]
Salt spray durability, in words [2]: superior to "Zinc Yellow" (zinc chromate) in salt spray durability

NCCN.O=C([O-])CCCCCCCC(=O)[O-].[Zn+2] [Compound 5, Zinc Azelate Ethylenediamine]
pH ([1]; Table III): 6.78 | Corrosion Pot. (Ecorr) ([1]; Table III, against saturated calomel electrode): -667 millivolts | Corrosion Curr. (Icorr) [1, 6]: 82 microamps | Effect of kaolin on salt spray performance ([3]; distended on kaolin): anomolously reduced the performance

NCCN.O=C([O-])CCCCCCCCC(=O)[O-].[Zn+2] [Compound 6, Zinc Sebacate Ethylenediamine]
Corrosion Curr. (Icorr) [1]: 170 microamps | Corrosion Pot. (Ecorr) [1]: -462 millivolts | pH [1]: 6.8 | Eye Irritation, rating in words (Draize eye irritation): severely irritating | Skin Irritation, rating in words (Primary skin irritation): minimally irritating

O=C([O-])CCCCCCCCCCC(=O)[O-].OCCN(CCO)CCO.[Zn+2] [Compound 10, Zinc Dibasate Triethanolamine]
Corrosion Curr. (Icorr) [1]: 93 microamps | Corrosion Pot. (Ecorr) [1]: -580 millivolts | pH [1]: 7.2

NCCN.O=C([O-])CCCCCCCCCCC(=O)[O-].[Zn+2] [Compound 11, Zinc Dodecanedioate Ethylenediamine]
Corrosion Curr. (Icorr) [1, 6]: 130 microamps | Salt spray durability, in words [2]: superior to "Zinc Yellow" (zinc chromate) in salt spray durability

CCNCC.O=C([O-])CCCCCCCCCCC(=O)[O-].[Zn+2] [Compound 12, Zinc Dodecanedioate Diethylamine]
Corrosion Curr. (Icorr) [1]: 197 microamps

NCCN.O=C([O-])c1ccccc1C(=O)[O-].[Zn+2] [Compound 17, Zinc Phthalate Ethylenediamine]
Corrosion Curr. (Icorr) [1]: 83 microamps | Skin Irritation, rating in words (Primary skin irritation): non-irritating

NCCN.O=C([O-])c1cccc(C(=O)[O-])c1.[Zn+2] [Compound 18, Zinc Isophthalate Ethylenediamine]
Salt spray durability, in words [2]: superior to "Zinc Yellow" (zinc chromate) in salt spray durability

Zinc Dibasate Diethylamine [Compound 9]
Corrosion Pot. (Ecorr) [1]: -570 millivolts | pH [1]: 7.0 | Acute oral toxicity, mortality (Acute oral toxicity; Oral (5 g/kg in Corn Oil)): 0% | Eye Irritation, rating in words (Draize eye irritation): mildly irritating

Zinc Dibasate Dimethylamine [Compound 21]
Corrosion Curr. (Icorr) [1]: 82 microamps | Corrosion Pot. (Ecorr) [1]: -610 millivolts

Zinc Dibasate Piperidine [Compound 24]
Corrosion Curr. (Icorr) [1]: 40 microamps | Corrosion Pot. (Ecorr) [1]: -610 millivolts

Zinc Dibasate Propylenediamine [Compound 8]
Solubility Description [4]: SS (key: PINS: practically insoluble (<.1 g/100 cc H2 O); SS: slightly soluble (.1 to 1 g/100 cc H2 O); MS: moderately soluble)

Zinc Sulfonyldiphenolate Ethylenediamine [Compound 15]
Corrosion Curr. (Icorr) [1]: 170 microamps | Corrosion Pot. (Ecorr) [1]: -592 millivolts | pH [1]: 7.67 | Eye Irritation, rating in words (Draize eye irritation): severely irritating | Skin Irritation, rating in words (Primary skin irritation): non-irritating

Zinc Thiodiphenolate Ethylenediamine [Compound 14]
Corrosion Curr. (Icorr) [1]: 52.5 microamps | Corrosion Pot. (Ecorr) [1]: -570 millivolts | pH [1]: 8.60 | Toxicity characteristics (overall statement) (Acute oral toxicity; acute oral, skin and eye tests of Table VIII): unacceptable toxicity characteristics | Effect of kaolin on salt spray performance [3]: kaolin likewise enhanced the performance | Hours to failure in salt spray (performance level) [3]: approximately 780 hours | Paint panel durability in salt spray, in words [2]: slightly less than half the durability achieved by the commercial "Zinc Yellow" (zinc chromate) corrosion-inhibitor formulation; also recorded: performed markedly better than commercially available corrosion inhibitors, such as Nalzin, Halox, Busan, "Moly White" and zinc phosphate | Eye Irritation, rating in words (Draize eye irritation): extremely irritating

Zinc Thiodiphenolate Propylenediamine [Compound 20]
Corrosion Curr. (Icorr) [1]: 46 microamps | Corrosion Pot. (Ecorr) [1]: -560 millivolts | pH [1]: 8.18

zinc chromate
TDLo [5]: 12 mg/kg
